Like-named read-outs stand apart in the source and are kept apart here.
Tests used:
human whole blood = assay type: cell-based; conditions: for IL10/TNFα cba: ratio of IL-10 to TNF; for TNFα/IL10 cba: ratio of TNF to IL-10
[1] = tested on: Ogawa P. gingivalis LPS stimulated whole blood cells; experiment: Inhibition of LPS-induced cytokines in whole blood; assay type: cell-based, human; conditions: 10, 5, 2.5 ug/mL
Source text: Table 4 provides the maximum levels of IL-4, IL-2 and IL-5 obtained, as well as ratios of TNF to IL-10, and ratios of IL-10 to TNF. Inhibition data for IL-8, reported as a percentage, are also provided on the right hand side of Table 4. For example, 90% inhibition would calculate to a 90% reduction of cytokine levels. MIP-1β results were similar. […]

human PBMCs = experiment: Lineage specific cell surface activation markers in human PBMCs; assay type: cell-based; conditions: LPS 10 ng/ml, RC-526 or RC-527 10 μg/ml
Method: This experiment describes lineage specific cell surface activation markers in human PBMCs activated with LPS or selected AGPs. PBMCs were harvested from a normal donor and plated at 1×10^7 cells/well in a […] (6 well plate) with 3 ml RPMI. LPS (10 ng/ml), RC-526 (10 μg/ml) or RC-527 (10 μg/ml) were added to each of 4 wells. Cells were harvested from each of 2 wells at 4 hr and 24 hr following activation and immediately stained for the lineage and cell surface activation markers.

influenza A/HK/68 = experiment: Lethal influenza challenge model, intranasal monotherapy; conditions: i.n., doses up to 40 μg; FIG. 12
Method: A dose of 20 μg MonoPhosphoryl Lipid A (MPL) was given to groups of female BALB/c mice by intranasal (i.n.) administration either 2 days prior to or the day of lethal influenza challenge. All mice were challenged with approximately 2 LD50 infectious influenza A/HK/68 administered i.n. Mortality was monitored for 21 days following influenza challenge.
A dose of 20 μg L-Seryl AGPs (RC-526, RC-554, RC-555, RC-537, RC-527, RC-538, RC-560, RC-512 and vehicle only) was given to groups of female BALB/c mice by intranasal (i.n.) administration 2 days prior to or the day of lethal influenza challenge. All mice were challenged with approximately 2 LD50 infectious influenza A/HK/68 administered i.n. The disease index (ruffled fur, hunched posture and labored breathing) was monitored during days 4-19 following influenza challenge. Weight loss and mortality were monitored for 21 days following influenza challenge.

[2] = tested on: L. monocytogenes 10403 serotype; experiment: Murine Listeria monocytogenes challenge model; assay type: in vivo, Mice; conditions: 1 μg intravenously in 0.2% TEOA, challenge two days later; FIGS. 14-17
Method: This example provides experiments evaluating the induction of non-specific resistance in the murine Listeria monocytogenes challenge model performed using various AGPs and MPL. Mice (5 per group) were treated intravenously with the 1 μg of an AGP or MPL solubilized in 0.2% TEOA. Two days later the mice were challenged intravenously with a ˜10^5 L. monocytogenes 10403 serotype (provided by M. L. Gray, Montana State University, Bozeman, Mont.). Two days after the challenge, the mice were sacrificed and the number of colony forming units (CFUs) in the spleens of individual mice were determined by plating 10-fold serial dilutions of splenic homogenates on tryptic soy agar plates. The degree of protection afforded by a given AGP or MPL was calculated by subtracting the average number of bacteria per spleen (log 10 value) in the group of mice treated with a given compound, from the average number of bacteria per spleen (log 10 value) in a control group that was “sham” treated with vehicle (0.2% TEOA) prior to challenge with L. monocytogenes.

## CCCCCCCCCCC[C@H](CC(=O)N[C@H]1[C@H](OC[C@H](NC(=O)C[C@@H](CCCCCCCCCCC)OC(=O)CCCCC)C(=O)O)O[C@H](CO)[C@@H](OP(=O)(O)O)[C@@H]1OC(=O)C[C@@H](CCCCCCCCCCC)OC(=O)CCCCC)OC(=O)CCCCC.CCN(CC)CC [RC-526]
Human whole blood; donor 1
  IL-1β cba2: 256
Human whole blood; donor 2
  IL10/TNFα cba: 1.2
  TNFα/IL10 cba: 0.9
Human whole blood; overnight culture
  cytokine stimulation in human whole blood cultures: little if any cytokine stimulation
[1]
  % inhib. LPS IL-8: 99%
Human PBMCs; 4 hr activation
  CD3+ CD69+ percent expression in NK-Cells (CD56+): 1%
  CD25+ percent expression in B-cells (CD19+): 0%
  CD25+ percent expression in Mono/Macs (CD14+): 1%
  CD69+ percent expression in B-cells (CD19+): 11%
  CD69+ percent expression in Mono/Macs (CD14+): 1%
  CD69+ percent expression in NK-Cells (CD56+): 4%
  CD69+ percent expression in T-cells (CD3+): 1%
  CD86+ percent expression in B-cells (CD19+): 4%
  CD95+ percent expression in B-cells (CD19+): 6%
  MFI CD11b+ in Mono/Macs (CD14+): 2154
  MFI CD54+ (ICAM-1) in B-cells (CD19+): 55
  MFI CD54+(ICAM-1) in Mono/Macs (CD14+): 502
  TLR2+ percent expression in Mono/Macs (CD14+): 93%
Human PBMCs; 24 hr activation
  CD3+ CD69+ percent expression in NK-Cells (CD56+): 2%
  CD14+ CD25+ percent expression in Mono/Macs (CD14+): 1%
  CD14+ CD69+ percent expression in Mono/Macs (CD14+): 2%
  CD14+ TLR2+ percent expression in Mono/Macs (CD14+): 79%
  CD19+ CD25+ percent expression in B-Cells (CD19+): 9%
  CD19+ CD69+ percent expression in B-Cells (CD19+): 22%
  CD19+ CD86+ percent expression in B-Cells (CD19+): 22%
  CD19+ CD95+ percent expression in B-Cells (CD19+): 15%
  CD69+ percent expression in NK-Cells (CD56+): 4%
  CD69+ percent expression in T-cells (CD3+): 2%
  MFI CD11b+ in Mono/Macs (CD14+): 1986
  MFI CD54+ (ICAM-1) in B-cells (CD19+): 118
  MFI CD54+(ICAM-1) in Mono/Macs (CD14+): 1590
Influenza A/HK/68
  protection against influenza challenge over dose range: no difference in protection up to doses of 40 μg

## CCCCCCCCCCC[C@H](CC(=O)N[C@H]1[C@H](OC[C@H](NC(=O)C[C@@H](CCCCCCCCCCC)OC(=O)CCCCCCCCC)C(N)=O)O[C@H](CO)[C@@H](OP(=O)(O)O)[C@@H]1OC(=O)C[C@@H](CCCCCCCCCCC)OC(=O)CCCCCCCCC)OC(=O)CCCCCCCCC.CCN(CC)CC [RC-522]
Human whole blood; donor 1
  IL10/TNFα cba: 2.7
  TNFα/IL10 cba: 0.4
[2]
  protection against L. monocytogenes challenge (reduction of log 10 bacteria per spleen vs vehicle): protection that was equal to or greater than that provided by MPL

## CCCCCCCCCCC[C@H](CC(=O)NCCO[C@@H]1O[C@H](CO)[C@@H](OP(=O)(O)O)[C@H](OC(=O)C[C@@H](CCCCCCCCCCC)OC(=O)CCCCCCCCC)[C@H]1NC(=O)C[C@@H](CCCCCCCCCCC)OC(=O)CCCCCCCCC)OC(=O)CCCCCCCCC.CCN(CC)CC [RC-524]
Human whole blood; donor 1
  IL10/TNFα cba: 1.8
  TNFα/IL10 cba: 0.2
Human whole blood; donor 2
  IL10/TNFα cba: 4
  TNFα/IL10 cba: 0.3
[2]
  protection against L. monocytogenes challenge (reduction of log 10 bacteria per spleen vs vehicle): protection that was equal to or greater than that provided by MPL

## CCCCCCCCCCC[C@H](CC(=O)N[C@H](CO)CCO[C@@H]1O[C@H](CO)[C@@H](OP(=O)(O)O)[C@H](OC(=O)C[C@@H](CCCCCCCCCCC)OC(=O)CCCCCCCCC)[C@H]1NC(=O)C[C@@H](CCCCCCCCCCC)OC(=O)CCCCCCCCC)OC(=O)CCCCCCCCC.CCN(CC)CC [RC-540]
Human whole blood; donor 1
  IL10/TNFα cba: 5.5
  TNFα/IL10 cba: 0.2
Human whole blood; donor 2
  IL10/TNFα cba: 5.2
  TNFα/IL10 cba: 0.2
[2]
  protection against L. monocytogenes challenge (reduction of log 10 bacteria per spleen vs vehicle): protection that was equal to or greater than that provided by MPL
